# Data as given in ChEMBL document CHEMBL5376009 (RSC Med Chem, 2024).
# Columns and labels:
# Influenza A virus [1] = test: Antiviral activity against influenza A virus A/duck/Hokkaido/Vac-3/2007 (H5N1) infected in MDCK cells assessed as reduction in cytopathic effect incubated for 48 hrs by crystal violet staining based plaque assay; format: functional, organism-based
# Influenza A virus [2] = test: Antiviral activity against influenza A virus A/Sydney/5/1997 (H3N2) infected in MDCK cells assessed as reduction in cytopathic effect incubated for 48 hrs by crystal violet staining based plaque assay; format: functional, organism-based
# Influenza A virus [3] = test: Antiviral activity against influenza A virus A/WSN/33 (H1N1) infected in MDCK cells assessed as reduction in cytopathic effect incubated for 48 hrs by crystal violet staining based plaque assay; format: functional, organism-based
# Influenza A virus [4] = test: Antiviral activity against influenza A virus A/PuertoRico/8/1934 (H1N1) infected in MDCK cells assessed as reduction in cytopathic effect incubated for 48 hrs by crystal violet staining based plaque assay; format: functional, organism-based
# [5] = Cytotoxicity against MDCK cells assessed as reduction in cell viability measured after 48 hrs by WST-1 assay; format: toxicity, cell-based, Canis lupus familiaris; conditions: dog
# rhinovirus B14 = test: Antiviral activity against Human rhinovirus 14 infected in human HeLa Ohio cells pretreated with cell for 2 hrs followed by viral infection for 1 hrs by plaque assay; format: functional, organism-based; conditions: Rhinovirus B
# A549 = test: Cytotoxicity against human A549 cells incubated for 48 hrs by cell Titer-Glo assay; format: functional
# [6] = target: Phosphatidylinositol 4-phosphate 3-kinase C2 domain-containing subunit beta (Homo sapiens, UniProt O00750); test: Inhibition of PIK3C2beta (unknown origin) by KINOMEscan method
# Influenza A virus [7] = test: Antiviral activity against Influenza A virus A/WSN/33 (H1N1) infected in human A549 cells pretreated with cell for 2 hrs followed by viral infection for 1 hrs by plaque assay; format: functional, organism-based
# Hepatitis C virus = test: Antiviral activity against Hepatitis C virus infected in human Huh7.5 cells pretreated with cell for 2 hrs followed by viral infection for 1 hrs by plaque assay; format: functional, organism-based, Hepacivirus hominis
# Influenza A virus [8] = test: Antiviral activity against Influenza A virus A/Panama/2007/99 (H3N2) infected in human A549 cells pretreated with cell for 2 hrs followed by viral infection for 1 hrs by plaque assay; format: functional, organism-based
# Influenza A virus [9] = test: Antiviral activity against Influenza A virus A/Vietnam/1203/04 (H5N1) HALo infected in human A549 cells pretreated with cell for 2 hrs followed by viral infection for 1 hrs by plaque assay; format: functional, organism-based
# Influenza A virus [10] = test: Antiviral activity against influenza A virus A/WSN/1933 (H1N1) infected in HEK293T cells assessed as reduction in cytopathic effect incubated for 24 hrs; format: functional, organism-based; conditions: HEK-293T
# [11] = Cytotoxicity against MDCK cells assessed as reduction in cell viability measured after 48 hrs by CCK-8 assay; format: toxicity, cell-based, Canis lupus familiaris; conditions: dog
# Influenza B virus [12] = test: Antiviral activity against influenza B virus infected in HEK293T cells assessed as reduction in cytopathic effect incubated for 24 hrs; format: functional, organism-based; conditions: HEK-293T
# Influenza A virus [13] = test: Antiviral activity against Influenza A virus A/California/04/2009 (H1N1) infected in MDCK cells pretreated with cell for 30 mins followed by viral infection and measured for 72 hrs by luminescence based assay; format: functional, organism-based
# [14] = Selectivity index, ratio of IC50 for cytotoxicity against MDCK cells to EC50 for antiviral activity Influenza A virus A/California/04/2009 (H1N1) infected in MDCK cells; format: toxicity, cell-based; conditions: dog, read-out: Selectivity Index
# [15] = Selectivity index, ratio of IC50 for cytotoxicity against MDCK cells to EC50 for antiviral activity Influenza A virus A/Vietnam/1203/2004 (H5N1) infected in MDCK cells; format: toxicity, cell-based; conditions: dog, read-out: Selectivity Index
# Influenza A virus [16] = test: Antiviral activity against Influenza A virus A/Vietnam/1203/2004 (H5N1) infected in MDCK cells pretreated with cell for 30 mins followed by viral infection and measured for 72 hrs by luminescence based assay; format: functional, organism-based
# Influenza A virus [17] = test: Antiviral activity against influenza A virus A/Anhui/1/2005 (H5N1) infected in MDCK cells assessed as reduction in cytopathic effect incubated for 72 hrs by CPE assay; format: functional, organism-based
# [18] = Cytotoxicity against MDCK cells assessed as reduction in cell viability measured after 72 hrs by CCK8 assay; format: toxicity, cell-based, Canis lupus familiaris; conditions: dog
# Influenza A virus [19] = test: Antiviral activity against Influenza A virus A/PR/8/34 (H1N1) infected in human A549 cells pretreated with cell for 3 hrs followed by viral infection and measured for 24 hrs; format: functional, organism-based
# [20] = Cytotoxicity against human A549 cells incubated for 48 hrs by neutral red uptake assay; format: toxicity, cell-based
# [21] = Cytotoxicity against MDCK cells assessed as reduction in cell viability measured after 72 hrs by fluorescence based assay; format: toxicity, Canis lupus familiaris; conditions: dog
# Influenza A virus [22] = test: Antiviral activity against influenza A virus A/WSN/1933 (H1N1) infected in MDCK cells assessed as reduction in cytopathic effect by fluorescence based analysis; format: functional, organism-based
# [23] = Cytotoxicity against MDCK cells; format: toxicity, cell-based, Canis lupus familiaris; conditions: dog
# Influenza A virus [24] = test: Antiviral activity against Influenza A virus A (H1N1); format: functional, organism-based
# Influenza A virus [25] = test: Antiviral activity against influenza A virus H1N1,A/WSN/1933 infected in MDCK cells assessed as reduction in plaque formation incubated for 72 hrs by crystal violet staining based analysis; format: functional, organism-based; conditions: H1N1,A/WSN/1933, MDCK
# [26] = Cytotoxicity against MDCK cells assessed as reduction in cell viability measured after 72 hrs by MTT assay; format: toxicity, cell-based, Canis lupus familiaris; conditions: dog
# Influenza A virus [27] = test: Antiviral activity against influenza A virus H5N1,A/Vietnam/1194/2004 infected in MDCK cells assessed as reduction in plaque formation incubated for 72 hrs by crystal violet staining based analysis; format: functional, organism-based; conditions: H5N1,A/Vietnam/1194/2004, MDCK
# Influenza B virus [28] = test: Antiviral activity against influenza B virus B/Florida/04/2006 infected in MDCK cells measured after 24 hrs post infection; format: functional, organism-based; conditions: B/Florida/04/2006, MDCK
# [29] = Cytotoxicity against MDCK cell incubated for 72 hrs by EZ-Cytox cell viability assay; format: toxicity, cell-based, Canis lupus familiaris; conditions: dog, MDCK cells
# Influenza A virus [30] = test: Antiviral activity against Influenza A virus A/Perth/16/2009 (H3N2) infected in MDCK cells measured after 24 hrs post infection; format: functional, organism-based
# Influenza A virus [31] = test: Antiviral activity against Influenza A virus A/California/7/2009 (H1N1) infected in MDCK cells measured after 24 hrs post infection; format: functional, organism-based
# Phosphatidylinositol 4-phosphate 3-kinase C2 domain-containing subunit beta, sequence (O00750 whole entry, the tested form may be a part): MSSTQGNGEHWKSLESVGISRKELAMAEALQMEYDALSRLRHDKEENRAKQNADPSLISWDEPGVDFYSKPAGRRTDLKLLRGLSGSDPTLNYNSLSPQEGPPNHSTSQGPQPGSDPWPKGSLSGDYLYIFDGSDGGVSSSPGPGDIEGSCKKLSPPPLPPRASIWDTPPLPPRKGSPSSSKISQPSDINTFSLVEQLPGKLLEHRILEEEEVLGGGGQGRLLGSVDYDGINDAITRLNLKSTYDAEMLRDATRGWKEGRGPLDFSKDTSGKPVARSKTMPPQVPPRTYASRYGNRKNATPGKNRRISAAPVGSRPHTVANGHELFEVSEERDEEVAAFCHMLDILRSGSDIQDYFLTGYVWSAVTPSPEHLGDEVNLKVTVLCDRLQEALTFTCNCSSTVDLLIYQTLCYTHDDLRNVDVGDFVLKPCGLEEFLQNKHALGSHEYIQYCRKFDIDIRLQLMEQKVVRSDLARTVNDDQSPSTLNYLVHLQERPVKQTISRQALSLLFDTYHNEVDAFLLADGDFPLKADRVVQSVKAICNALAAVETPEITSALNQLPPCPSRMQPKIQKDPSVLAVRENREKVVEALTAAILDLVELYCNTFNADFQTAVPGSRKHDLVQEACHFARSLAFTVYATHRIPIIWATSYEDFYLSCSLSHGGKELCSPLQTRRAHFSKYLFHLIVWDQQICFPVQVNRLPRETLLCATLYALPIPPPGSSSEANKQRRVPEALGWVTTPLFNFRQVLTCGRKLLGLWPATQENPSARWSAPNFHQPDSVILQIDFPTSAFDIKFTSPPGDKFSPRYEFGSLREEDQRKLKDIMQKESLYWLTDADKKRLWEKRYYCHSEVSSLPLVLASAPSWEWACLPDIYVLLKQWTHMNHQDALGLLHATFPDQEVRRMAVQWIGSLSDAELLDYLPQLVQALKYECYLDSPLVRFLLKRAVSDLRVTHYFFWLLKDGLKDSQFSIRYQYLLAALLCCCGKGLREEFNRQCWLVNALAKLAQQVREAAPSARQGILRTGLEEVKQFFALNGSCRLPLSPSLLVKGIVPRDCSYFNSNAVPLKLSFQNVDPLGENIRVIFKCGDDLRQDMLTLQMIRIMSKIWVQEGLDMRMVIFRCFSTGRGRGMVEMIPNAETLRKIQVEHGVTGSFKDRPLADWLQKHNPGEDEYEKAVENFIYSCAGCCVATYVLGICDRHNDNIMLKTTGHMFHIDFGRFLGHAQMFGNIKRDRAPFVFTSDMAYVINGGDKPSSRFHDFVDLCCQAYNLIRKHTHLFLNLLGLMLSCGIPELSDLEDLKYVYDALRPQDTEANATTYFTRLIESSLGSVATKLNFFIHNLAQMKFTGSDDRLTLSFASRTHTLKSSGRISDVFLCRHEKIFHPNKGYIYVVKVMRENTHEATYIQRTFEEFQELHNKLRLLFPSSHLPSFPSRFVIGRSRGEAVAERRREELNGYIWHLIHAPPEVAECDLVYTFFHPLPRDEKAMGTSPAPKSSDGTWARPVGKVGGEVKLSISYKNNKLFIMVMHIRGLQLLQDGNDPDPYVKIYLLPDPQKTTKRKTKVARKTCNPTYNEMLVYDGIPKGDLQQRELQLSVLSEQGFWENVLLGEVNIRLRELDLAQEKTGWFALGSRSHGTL
structure (smiles),measurement,setting,value
OC(CN1CCCCC1)Cn1c2c(c3ccccc31)CCCC2 (stereo unspecified),EC50,Influenza A virus [1],39800 nM
same,EC50,Influenza A virus [2],44700 nM
same,EC50,Influenza A virus [3],35600 nM
same,EC50,Influenza A virus [4],30700 nM
same,CC50 at 48 h,[5],> 200000 nM
O=C(Cc1cccs1)Nc1cccc(-c2ccc3nnc(-c4cccnc4)n3n2)c1,EC50,rhinovirus B14,50 nM
same,CC50,A549,> 50000 nM
same,EC50,[6],430 nM
same,EC50,Influenza A virus [7],2050 nM
same,EC50,Hepatitis C virus,760 nM
same,EC50,Influenza A virus [8],1220 nM
same,EC50,Influenza A virus [9],1770 nM
C/C(=C\CC/C(C)=C/C[C@]1(O)C(=O)c2c(O)cc(C)c3c(O)c(C)c(O)c(c23)C1=O)CC/C=C(\CO)CC[C@@H](O)C(C)(C)O,EC50,Influenza A virus [10],280 nM
same,CC50 at 48 h,[11],> 100000 nM
same,EC50,Influenza B virus [12],1220 nM
CC1CC2=C(NC(=O)NC2c2ccc(O)c(Br)c2)c2ccccc21 (stereo unspecified),EC50,Influenza A virus [13],98 nM
same,selectivity ratio,[14],> 510
same,selectivity ratio,[15],> 1090
same,EC50,Influenza A virus [16],46 nM
CCCC(=O)c1c(O)c(CC2=C(O)C(C)(C)C(O)=C(C(C)=O)C2=O)c(O)c(Cc2c(O)c(CC3=C(O)C(C)(C)C(O)=C(C(C)=O)C3=O)c(O)c(C(=O)CCC)c2O)c1O,EC50,Influenza A virus [17],16600 nM
same,CC50 at 72 h,[18],> 400000 nM
O=C(CSc1nnnn1-c1ccccc1)NCc1ccccc1,EC50,Influenza A virus [19],46400 nM
same,CC50 at 48 h,[20],> 150000 nM
CCCCN1Cc2ccccc2Oc2ccccc2S1(=O)=O,CC50 at 72 h,[21],> 100000 nM
same,EC50,Influenza A virus [22],380 nM
Cc1cccc(N2CCN(Cc3n[nH]c(=O)n3Cc3cccc(F)c3)CC2)c1C,CC50 at 72 h,[21],> 100000 nM
same,EC50,Influenza A virus [22],170 nM
C=C1Cc2cc(C(F)(F)F)ccc2C(=O)NCC(C)/C(=N/OC)CCCCOC1=O (stereo unspecified),CC50,[23],> 100000 nM
same,EC50,Influenza A virus [24],570 nM
Cc1cc(C(=O)NC(C)C23CC4CC(CC(C4)C2)C3)c(C)o1 (stereo unspecified),EC50,Influenza A virus [25],69 nM
same,CC50 at 72 h,[26],73000 nM
same,EC50,Influenza A virus [27],80 nM
COc1ccccc1-c1cc2c(Nc3ccccc3)nccc2n1C,EC50,Influenza B virus [28],12900 nM
same,CC50 at 72 h,[29],27200 nM
same,EC50,Influenza A virus [30],8290 nM
same,EC50,Influenza A virus [31],1170 nM
